Results reported in patent EP4005570B1, “P[…] USE IN TREATING RETT SYNDROME” (Prilenia Neurotherapeutics Ltd., priority 2016, dated 2018).
Several values for one entry are separate records, joined by “and”; a condition that tells them apart may be missing. Identical values can stand only once. Like-named read-outs stand apart in the source and are kept apart here.

Legend:
[1] = tested on: female MeCP2 (BIRD) mouse model of RTT; conditions: for Recovery (%) Gait / Recovery (%) Paw Features / Recovery (%) Paw Positioning / Recovery (%) Body Motion / Recovery (%) Rhythmicity: HET mice
Source text: (§1) Dosing commenced when mice were ~5.5 weeks of age and continued through the end of behavioral testing. Behavioral testing was done at 8 and 12 weeks of age.
(§2) Female MeCP2 ([…], HET) mice and wild type (MeCP2_WT, WT) littermates were received in two cohorts at ~4.5 weeks of age from Jackson Laboratories. They were assigned unique identification numbers and group-housed in opti-MICE cages (Animal Care Systems, CO). All animals were examined and weighed prior to initiation and throughout the study to assure adequate health and suitability and to minimize nonspecific stress associated with manipulation. During the course of the study, 12/12 light/dark cycle was maintained. The room temperature was maintained between 20 and 23°C with a relative humidity maintained around 50%. Chow and water was provided ad libitum for the duration of the study. The tests were performed during the animal's light cycle phase.
Mice were placed in the NeuroCube for a 5 min test. The most dominant of the features collected that define the disease phenotype (symptom descriptors) was identified and ranked. Complex bioinformatic algorithms were employed to calculate the discrimination probability between the WT and the BIRD mice and detect a test compound's ability to reverse the disease phenotype. Discriminations between mutant and wild type was calculated as well as the recovery of disease features in HET mice treated with the test compound.
The output of NeuroCube is a set of dozens of behavioral features that are submitted for analysis with machine learning techniques used in bioinformatics. Many of these features are correlated (e.g. rearing counts and supported rearing counts). Therefore, PGI forms statistically independent combinations of the original features (further referred to as de-correlated features) that discriminate between the two groups more effectively.
Each de-correlated feature extracts information from the whole cluster of the original features, so the new feature space has lower dimensionality. Next, PGI applies a proprietary feature ranking algorithm to score each feature's discrimination power (ability to separate the two groups, e.g. control and disease).
Ranking is an important part of the analyses because it weighs each feature change by its relevance: if there is a significant change in some irrelevant feature measured for a particular phenotype, the low rank of this feature will automatically reduce the effect of such change in the analyses, so there is no need to resort to the conventional "feature selection" approach and discard information buried in the less informative features. Ranking algorithm can be applied to either original or the new features to gain insight about the key control-disease differences (see Figure 1).
In the new feature space, the overlap between the "clouds" (Gaussian distributions approximating the groups of mice in the ranked de-correlated features space) serves as a quantitative measure of separability ("distinguishability") between the two groups (see Figure 2). For visualization purposes, each cloud was plotted with its semi-axes equal to the one standard deviation along the corresponding dimensions.

[2] = tested on: female MeCP2 (BIRD) mouse model of RTT
Source text: as §1, §2
(§3) Data from standard tests were analyzed by genotype (t-test) and by treatment (ANOVA) followed by post-hoc comparisons where appropriate. For some measures (i.e. body weights and PPI), repeated-measures ANOVAs were performed. For clasping data, N-1 two-proportional tests were performed. An effect was considered significant if p < 0.05. All data are represented as the mean and standard error to the mean (s.e.m). Values ± 2 standard deviations from the mean were considered outliers.

[3] = tested on: female MeCP2 (BIRD) mouse model of RTT; conditions: for startle response: vs vehicle-treated HET mice
Source text: as §1, §2
Mice were placed in the PPI chambers (Med Associates) for a 5 min session of white noise (70 dB) habituation.
The inter-trial interval was variable with an average of 15 s (range from 10 to 20 s).
as §3

BDNF = conditions: whole brain; 3 and 30 mg/kg BID; vs MeCP2_HET vehicle
Procedure: Mice were euthanized via cervical dislocation and decapitated. From 10 mice/treatment group, whole brains were collected, weighed, and then frozen on dry ice. Samples were stored at - 80°C until analysis of brain-derived neurotrophic factor (BDNF).
Once tissues were disrupted, samples were allowed to incubate at room temperate for 5 minutes.
Briefly, 150µL of Chloroform (Cat # C2432, Sigma-Aldrich, St. Louis, MO) was added and samples were shaken vigorously for 15 seconds followed by 3-minute incubation at room temperature. The aqueous phase was separated from the organic phase by centrifugation at 6,000 x g (Beckman Coulter Avanti J-30I), 4°C for 15 minutes. The aqueous phase was then transferred to a new 96-well block and total RNA was precipitated with equal volume of 70% ethanol. Content was transferred to an RNeasy 96-well plate, followed by centrifuge at 6,000-x g (Beckman Coulter Avanti J-30I), at room temperate for 4 minutes. […] RNA was eluted with RNase-Free water.
Samples were quantified using NanoDrop 8000 (Thermo Scientific). […]
Relative quantity of the PCR product (relative to the calibrator) was calculated as follows: [formula] […]
Geometric mean for the three housekeeping genes was calculated as follows: [formula]
Relative level of target gene was calculated as follows: Relative Quantity of Target gene÷Geometric mean of housekeeping genes [formula] […]

[4] = tested on: patient afflicted with RTT; conditions: periodic administration (daily or twice daily), intravenously or orally
neuroblastoma cell line = conditions: S1R-dependent manner (Geva 2016); cited from earlier work
[5] = 12 weeks, 30 mg/kg BID, 30 mg/kg
[6] = 12 weeks, 30 mg/kg BID, listed as pridopidine, 30 mg/kg

## CCCN1CCC(c2cccc(S(C)(=O)=O)c2)CC1 [Pridopidine, 4-[3-(methylsulfonyl)phenyl]-1-propyl-piperidine]
[1]; 3 mg/kg BID, compared with vehicle-treated mutants, age not stated
  gait measures: differed significantly
[1]; 3 mg/kg, 8 weeks of age, Figure 8A
  recovery of overall gait features: no recovery
[1]; 3 mg/kg, 12 weeks of age, Figure 9A
  recovery of overall gait features: no recovery
[1]; 30 mg/kg, 8 weeks of age, Figure 8B
  recovery of overall gait features: 45% and 55%
[1]; 30 mg/kg, 8 weeks of age, Figure 8B, listed as pridopidine
  recovery of overall gait features: significant recovery
[1]; 30 mg/kg, 12 weeks of age, Figure 9B
  recovery of overall gait features: 55%
[1]; 8 weeks, 3 mg/kg BID
  Recovery (%) Gait: 38%
  Recovery (%) Paw Features: 0%
  Recovery (%) Paw Positioning: 8%
[1]; 8 weeks, 3 mg/kg BID, 3 mg/kg
  Recovery (%) Body Motion: 82%
[1]; 8 weeks, 3 mg/kg BID, listed as pridopidine, 3 mg/kg
  Recovery (%) Body Motion: showed efficacy
[1]; 8 weeks, 30 mg/kg BID
  Recovery (%) Gait: 71%
  Recovery (%) Paw Features: 63%
  Recovery (%) Paw Positioning: 35%
[1]; 8 weeks, 30 mg/kg BID, 30 mg/kg
  Recovery (%) Body Motion: 84%
[1]; 8 weeks, 30 mg/kg BID, listed as pridopidine, 30 mg/kg
  Recovery (%) Body Motion: showed efficacy
[1]; 12 weeks, 3 mg/kg BID
  Recovery (%) Gait: 60%
  Recovery (%) Paw Features: 0%
  Recovery (%) Paw Positioning: 35%
  Recovery (%) Rhythmicity: 41%
[1]; 12 weeks, 3 mg/kg BID, 3 mg/kg
  Recovery (%) Body Motion: 65%
[1]; 12 weeks, 3 mg/kg BID, listed as pridopidine, 3 mg/kg
  Recovery (%) Body Motion: showed efficacy
[1]; 12 weeks, 30 mg/kg BID
  Recovery (%) Paw Features: 69%
  Recovery (%) Paw Positioning: 52%
  Recovery (%) Rhythmicity: 10%
[1]; [5]
  Recovery (%) Body Motion: 59%
  Recovery (%) Gait: 100%
[1]; [6]
  Recovery (%) Body Motion: showed efficacy
  Recovery (%) Gait: Significant effects
[2]; 3 mg/kg BID, 8 and 12 weeks, vs HET-vehicle
  hindlimb clasping: did not have a significant effect
[2]; 30 mg/kg BID, 12 weeks
  hindlimb clasping: this effect was not seen
[3]; 3 mg/kg BID, both ages (8 and 12 weeks)
  startle response: increased startle response
[3]; 30 mg/kg BID
  startle response: did not have a significant effect
[3]; 3 and 30 mg/kg BID, HET mice
  prepulse inhibition response: No genotype or treatment effects were observed
BDNF
  BDNF I mRNA expression: None of the treatments had a significant effect
  BDNF VI mRNA expression: None of the treatments had a significant effect
[4]
  treatment of the patient afflicted with RTT: effective to treat the patient
Neuroblastoma cell line
  secretion of the neuroprotective brain-derived neurotrophic factor (BDNF): enhances secretion
